The test system of the assay is Panc354 and MetPO1 cells. In words: Flow cytometry for CD133 after combination treatment. In kind it is cell-based, human. The conditions noted are these: representative cytometry plot, JM#21 10μM, Gem 1μM. For orientation: A flow cytometer gives signals particle by particle.

Structures are written as SMILES.

As to `Nc1ccn([C@@H]2O[C@H](CO)[C@@H](O)C2(F)F)c(=O)n1` [gemcitabine], the “CD133 - PE positive cells” value was determined as 14.5%.

Source of the values: publication doi:10.1101/2025.03.03.641126v1 (bioRxiv, 2025).
